Common to all, as to assay type: protein-complex assay
For data set [1], the target named is T1, Protein farnesyltransferase (Homo sapiens) (UniProt P49354+P49356). Description: Catalytic constant against Farnesyltransferase.
The target in data set [2] is T1, Protein farnesyltransferase (Homo sapiens). Nature of the data set: Ratio of Kcat to Km for farnesyltransferase.
Data set [3] concerns CC(C)=CCC/C(C)=C/CC/C(C)=C/COP(=O)(O)CP(=O)(O)O. Description: (§1) Michaelis-Menten constant against Farnesyltransferase.
Data set [4] concerns CC(C)=CCC/C(C)=C/CC/C(C)=C/COP(=O)(O)OP(=O)(O)O. The data set is described as §1.

As usually defined, the Km is the concentration of substrate that gives half-maximal velocity.

In turn, `CC(C)=CCC/C(C)=C/CC/C(C)=C/COP(=O)(O)OP(=O)(O)O` gave a K cat in data set [1] of 0.09 s⁻¹. For the same compound, the Ratio in data set [2] was 2e+06 M⁻¹ s⁻¹.

As to `CC(C)=CCC/C(C)=C/CC/C(C)=C/COP(=O)(O)CP(=O)(O)O`, the K cat in data set [1] worked out at 0.06 s⁻¹. The Ratio in data set [2] turned out to be 300000 M⁻¹ s⁻¹.

For the compound “Protein farnesyltransferase (Homo sapiens) (from UniProt P49354+P49356)”, the Km stood at 0.18 µM in data set [3] and 0.04 µM in data set [4].

The values above are taken from ChEMBL document CHEMBL1137881, “Synthesis of acyloxymethyl ester prodrugs of the transferable protein farnesyl transferase substrate farnesyl methylenediphosphonate” (Bioorg Med Chem Lett, 2004).
